Assay results: ChEMBL document CHEMBL1201862, “PubChem BioAssay data set” (2004)
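Dose response: 5 concentrations. Exposure: 48 h. Format: 96-well plates. Endpoint: linear interpolation; highest concentration if not reached. GI50 marks 50% less growth.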 Calls of active or inactive are those of the source. Rule as the data show it: active = GI50 up to about 1.1 µM and inactive = higher.

Legend:
Test in all cases: NCI tumour cell line growth inhibition, 48 h
HT-29 = tested on: HT-29
SR = tested on: SR
NCI/ADR-RES = tested on: NCI/ADR-RES
MDA-MB-231 = tested on: MDA-MB-231
NCI-H460 = tested on: NCI-H460
UACC-62 = tested on: UACC-62
786-0 = tested on: 786-0
SK-MEL-5 = tested on: SK-MEL-5
Hs-578T = tested on: Hs-578T
HOP-62 = tested on: HOP-62
NCI-H226 = tested on: NCI-H226
SNB-75 = tested on: SNB-75
UO-31 = tested on: UO-31
LOX IMVI = tested on: LOX IMVI
TK-10 = tested on: TK-10
CCRF-CEM = tested on: CCRF-CEM
SF-295 = tested on: SF-295
NCI-H23 = tested on: NCI-H23
MDA-MB-435 = tested on: MDA-MB-435
HL-60 = tested on: HL-60

| Structure (SMILES) | GI50 (HT-29) | GI50 (SR) | GI50 (NCI/ADR-RES) | GI50 (MDA-MB-231) | GI50 (NCI-H460) | GI50 (UACC-62) | GI50 (786-0) | GI50 (SK-MEL-5) | GI50 (Hs-578T) | GI50 (HOP-62) | GI50 (NCI-H226) | GI50 (SNB-75) | GI50 (UO-31) | GI50 (LOX IMVI) | GI50 (TK-10) | GI50 (CCRF-CEM) | GI50 (SF-295) | GI50 (NCI-H23) | GI50 (MDA-MB-435) | GI50 (HL-60) |
| --- | --- | --- | --- | --- | --- | --- | --- | --- | --- | --- | --- | --- | --- | --- | --- | --- | --- | --- | --- | --- |
| CC(C)N(Cc1ccccc1)S(=O)(=O)c1nc(C(C)(C)C)n[nH]1 | > 100 µM (inactive) | > 100 µM (inactive) | > 100 µM (inactive) | > 100 µM (inactive) | > 100 µM (inactive) | > 100 µM (inactive) | > 100 µM (inactive) | > 100 µM (inactive) | > 100 µM (inactive) | > 100 µM (inactive) | > 100 µM (inactive) | > 100 µM (inactive) | > 100 µM (inactive) | > 100 µM (inactive) | > 100 µM (inactive) | > 100 µM (inactive) | > 100 µM (inactive) | > 100 µM (inactive) | > 100 µM (inactive) | 46.1 µM (inactive) |
| Cc1c2ccccc2c(CSC(=N)N)c2ccccc12 | 0.163 µM (active) | 0.0194 µM (active) | 0.234 µM (active) | 0.276 µM (active) | 0.074 µM (active) | 0.181 µM (active) | 0.143 µM (active) | 0.162 µM (active) | 0.172 µM (active) | 0.241 µM (active) | 0.247 µM (active) | 0.178 µM (active) | 0.181 µM (active) | 0.202 µM (active) | 0.222 µM (active) | 0.0203 µM (active) | 0.271 µM (active) | 0.106 µM (active) | 0.181 µM (active) | 0.111 µM (active) |
| C=CC1(c2ccc(Br)cc2)OCCCO1 | > 100 µM (inactive) | > 100 µM (inactive) | > 100 µM (inactive) | > 100 µM (inactive) | > 100 µM (inactive) | > 100 µM (inactive) | > 100 µM (inactive) | > 100 µM (inactive) | > 100 µM (inactive) | > 100 µM (inactive) | > 100 µM (inactive) | > 100 µM (inactive) | > 100 µM (inactive) | > 100 µM (inactive) | > 100 µM (inactive) | > 100 µM (inactive) | > 100 µM (inactive) | > 100 µM (inactive) | > 100 µM (inactive) | > 100 µM (inactive) |
| Nc1nc(-c2ccccc2)nc2oc(-c3cccs3)nc12 | > 100 µM (inactive) | > 100 µM (inactive) | > 100 µM (inactive) | > 100 µM (inactive) | > 100 µM (inactive) | > 100 µM (inactive) | > 100 µM (inactive) | > 100 µM (inactive) | > 100 µM (inactive) | > 100 µM (inactive) | > 100 µM (inactive) | > 100 µM (inactive) | > 100 µM (inactive) | > 100 µM (inactive) | > 100 µM (inactive) | > 100 µM (inactive) | > 100 µM (inactive) | > 100 µM (inactive) | > 100 µM (inactive) | > 100 µM (inactive) |
| S=c1sc2c(s1)SCCCCSCCCCSc1sc(=S)sc1SCCCCSCCCCS2 | > 100 µM (inactive) | > 100 µM (inactive) | > 100 µM (inactive) | > 100 µM (inactive) | > 100 µM (inactive) | > 100 µM (inactive) | 68.5 µM (inactive) | > 100 µM (inactive) | 30.2 µM (inactive) | > 100 µM (inactive) | > 100 µM (inactive) | 18.6 µM (inactive) | > 100 µM (inactive) | > 100 µM (inactive) | > 100 µM (inactive) | > 100 µM (inactive) | > 100 µM (inactive) | > 100 µM (inactive) | > 100 µM (inactive) | > 100 µM (inactive) |
| CCCCN(C)C(=O)C1=C(C)NC(C)=C(C(=O)N(C)CCCC)C1 | > 100 µM (inactive) | 83.9 µM (inactive) | > 100 µM (inactive) | > 100 µM (inactive) | > 100 µM (inactive) | > 100 µM (inactive) | > 100 µM (inactive) | > 100 µM (inactive) | > 100 µM (inactive) | > 100 µM (inactive) | > 100 µM (inactive) | 50.7 µM (inactive) | 61.1 µM (inactive) | > 100 µM (inactive) | > 100 µM (inactive) | 66.2 µM (inactive) | > 100 µM (inactive) | > 100 µM (inactive) | > 100 µM (inactive) | 54.1 µM (inactive) |
| O=C1C=CC(=O)c2c1ccc1c3ccccc3n(CCCCCn3c4ccccc4c4ccc5c(c43)C(=O)C=CC5=O)c21 | 32 µM (inactive) | 1.9 µM (inactive) | 25.6 µM (inactive) | 21.2 µM (inactive) | > 78 µM (inactive) | 25.7 µM (inactive) | 6.87 µM (inactive) | 32.4 µM (inactive) | 21.2 µM (inactive) | > 91.4 µM (inactive) | > 100 µM (inactive) | 14.9 µM (inactive) | 7.87 µM (inactive) | 16 µM (inactive) | 12.4 µM (inactive) | 0.454 µM (active) | > 100 µM (inactive) | 16 µM (inactive) | 22 µM (inactive) | 0.875 µM (active) |
